Each structure is given as a SMILES string. “Also recorded” adds a separate entry of the source.

Data set [1] relates to eye of a presbyopic myope. Description: Hartinger refractometry at distance and near after one topical drop, myopic presbyope. Type of data set: in vivo, human. The conditions noted are these: for Mean Refraction, Near OS: +1.50 sphere in the right eye for near fixation; for Mean Refraction, Near OD: +1.75 sphere in the left eye for near fixation. The method, then: (§1) This clinical study was designed to evaluate the effect of a low dose muscarinic agent such as Pilocarpine from 0.001% to less than 2% by weight values on the refractive status of the eye.
(§2) One drop of Pilocarpine 0.3% was administered topically to the eye of a presbyopic myope and hyperope, before and after Hartinger Refractometry at distance and near was performed by the same observer.
(§3) Refraction at distance and near was performed with the Hartinger Refractomer by the same observer prior to installation of Pilcarpine 0.3%. Three measurements were taken at distance and at near for each eye tested at each timepoint.
(§4) In the myopic presbyope, both eyes received Piolcarpine 0.3%. In the hyperopic presbyope, only the right eye received Pilocarpine 0.3%.
(§5) At approximately 30-50 and 60-90 minutes post installation of Pilocarpine, refraction measurements were repeated.

Data set [2] concerns eye of a presbyopic myope. Described as above. Type of data set: in vivo, human. The conditions noted are these: single measurements, time point printed '30 min, 3:45 pm'.
Data set [3] relates to eye of a presbyopic hyperope. Description: Hartinger refractometry at distance and near after one topical drop, hyperopic presbyope. The data set is classed as in vivo, human. How it is done: as §1, §2, §3, §4, §5
The test system of data set [4] is eye of a human adult with presbyopia. Description: Eye drop formulation given to a human adult with presbyopia. Type of data set: in vivo. The conditions noted are these: 0.1% weight/volume in base solution pH 6.4, human adult with presbyopia. The method, then: In a specific example of this invention, a base solution can be formulated as follows: Sodium Chloride 0.3%; Edetate Disodium 0.1%; Boric Acid 1.0%; Benzaliconium Chloride 0.01% Sodium Hydroxide (adjust to pH 6.4) and Water. Pilocarpine, at a concentration of 0.1% weight/volume, is added to the base solution. The above formulation is administered to the eye of a human adult with presbyopia, shown by their discomfort when reading, or their inability to read fine print.

For a further data set, the system named is pupil size. Briefly: Observation of pupil size in the refractometry study. Type of data set: in vivo, human. The settings on record: after one topical drop, myopic and hyperopic presbyope.

For `CC[C@@H]1C(=O)OC[C@@H]1Cc1cncn1C` [Pilocarpine 0.3%, Pilocarpine], in data set [1] (30 and 60 minutes post dosing), the “change in distance and near myopic correction” value was “small but definite decrease in the distance and near myopic correction which was greater at 60 than 30 minutes post dosing”. Besides, the “Mean Refraction, Distance OD” value in data set [1] (30 min post instillation) was −1.06 diopters; in data set [1] (60 min post instillation), −1.05 diopters; in data set [3] (50 min post instillation) it was “+1.15 diopters”; in data set [3] (90 min post instillation), “+0.42 diopters”. Further, the figures for the “Mean Refraction, Near OS” value in data set [1] (30 min post instillation) and in data set [1] (60 min post instillation) were −1.53 diopters and −0.95 diopters, respectively. The “Mean Refraction, Near OD” value is listed as −1.8 diopters in data set [1] (30 min post instillation); −1.5 diopters in data set [1] (60 min post instillation); “+0.17 diopters” in data set [3] (50 min post instillation, +2.5 sphere in the left eye for near fixation); “+0.38 diopters” in data set [3] (90 min post instillation, +2.50 sphere in the left eye for near fixation). In addition, the “Mean Refraction, Distance OS” value in data set [1] (60 min post instillation) is −1.25 diopters. Also, the “Refraction, Distance OS” value in data set [2] was −1.25 diopters. In data set [2], the “Refraction, Near OD” value is listed as −1.5 diopters. Moreover, the “change in distance and near hyperopic correction” value in data set [3] (90 minutes post dosing) is “small but definite decrease in the distance and near hyperopic correction”. Also, in data set [4], the “vision after administration of the eye drops” value is listed as “Vision is improved”. The “change in pupil size” value with pupil size is “no notable change in pupil size; also recorded: no observable effect on pupil size”.

The record behind these values is patent US6410544B1, “Cholinergic agents in the treatment of presbyopia” (Allergan Sales, Inc., priority 1998, dated 2002).
